Where a name gives a salt, the structure may show the parent alone.

Broadly, the melting point is the temperature of the solid-liquid transition. The compound `Nc1nc2c(OCCOc3nccnc3N3CCNCC3)cccc2o1` (as salt: fumarate) [Example 21, 4-(2-{[3-(1-piperazinyl)-2-pyrazinyl]oxy}ethoxy)-1,3-benzoxazol-2-amine] displayed a melting point of 138 to 140 °C.

In the case of `CN(CCOc1ccccc1)c1nccnc1N1CCNCC1` (as salt: fumarate) [Example 47, N-Methyl-N-(2-phenoxyethyl)-3-(1-piperazinyl)-2-pyrazinamine], the melting point is 154 °C.

As to `COc1ccc(F)cc1OCCOc1nccnc1N1CCNCC1` (as salt: fumarate) [Example 100, 2-[2-(5-Fluoro-2-methoxyphenoxy)ethoxy]-3-(1-piperazinyl)pyrazine], the melting point was in the range of 172 to 176 °C.

The compound `Fc1cccc(OCCOc2nccnc2N2CCNCC2)c1F` (as salt: fumarate) [Example 105, 2-[2-(2,3-Difluorophenoxy)ethoxy]-3-(1-piperazinyl)pyrazine] returned a melting point of 125 to 130 °C.

Turning to `Fc1cc(F)c(F)c(OCCOc2nccnc2N2CCNCC2)c1` (as salt: fumarate) [Example 106, 2-[2-(2,3,5-Trifluorophenoxy)ethoxy]-3-(1-piperazinyl)pyrazine], the melting point was 158 to 159 °C.

For the compound `c1ccc(Nc2cccc(OCCOc3nccnc3N3CCNCC3)c2)cc1` (as salt: fumarate) [Example 107, N-Phenyl-3-(2-{[3-(1-piperazinyl)-2-pyrazinyl]oxy}ethoxy)aniline], the melting point lay within 78 to 81 °C.

As to `c1ccc2c(c1)OC(COc1nccnc1N1CCNCC1)CS2` (stereo not shown) (as salt: fumarate) [Example 132, 2-(2,3-Dihydro-1,4-benzoxathiin-2-ylmethoxy)-3-(1-piperazinyl)pyrazine], the melting point fell in the range of 178 to 179 °C.

As to `Cc1ccc(OCCOc2nccnc2N2CCNC[C@H]2C)cn1` (as salt: fumarate) [Example 176, (2R)-2-Methyl-1-(3-{2-[(6-methyl-3-pyridinyl)oxy]ethoxy}-2-pyrazinyl)piperazine], the melting point was 115 °C (dec.).

In turn, `CCC1CNCCN1c1nccnc1OCCOc1cccnc1` (stereo not shown) (as salt: fumarate) [Example 178, 2-Ethyl-1-{3-[2-(3-pyridinyloxy)ethoxy]-2-pyrazinyl}piperazine] returned a melting point of 125 to 127 °C.

For the compound `C[C@@H]1CNC[C@H](C)N1c1nccnc1OCCOc1cccnc1` (as salt: fumarate) [Example 179, cis-2,6-Dimethyl-1-{3-[2-(3-pyridinyloxy)ethoxy]-2-pyrazinyl}piperazine], the melting point was 157 °C (dec.).

`Brc1ncccc1OCCOc1nccnc1N1CCNCC1` (as salt: fumarate) [Example 195, 2-{2-[(2-Bromo-3-pyridinyl)oxy]ethoxy}-3-(1-piperazinyl)pyrazine] came in with a melting point of 202 °C.

The compound `C[C@@H]1CNCCN1c1nccnc1OCCOc1cccnc1Br` (as salt: fumarate) [Example 196, (2R)-1-(3-{2-[(2-Bromo-3-pyridinyl)oxy]ethoxy}-2-pyrazinyl)-2-methylpiperazine] had a melting point of 154 °C.

`CSc1ncccc1OCCOc1nccnc1N1CCNCC1` (as salt: fumarate) [Example 197, 2-(2-{[2-(Methylsulfanyl)-3-pyridinyl]oxy}ethoxy)-3-(1-piperazinyl)pyrazine] registered a melting point of 201 °C.

`CSc1ncccc1OCCOc1nccnc1N1CCNC[C@H]1C` (as salt: fumarate) [Example 198, (2R)-2-Methyl-1-[3-(2-{[2-(methylsulfanyl)-3-pyridinyl]oxy}ethoxy)-2-pyrazinyl]piperazine] showed a melting point of 179 °C.

Compound `CCOc1ncccc1OCCOc1nccnc1N1CCNCC1` (as salt: fumarate) [Example 199, 2-{2-[(2-Ethoxy-3-pyridinyl)oxy]ethoxy}-3-(1-piperazinyl)pyrazine] gave a melting point of 186 °C.

`c1ccc2c(c1)CCC(COc1nccnc1N1CCNCC1)C2` (stereo not shown) (as salt: fumarate) [Example 207, 3-(1-piperazinyl)-2-pyrazinyl 1,2,3,4-tetrahydro-2-naphthalenylmethyl ether]: the melting point fell in the range of 186 to 188 °C.

The compound `c1cnc2ccc(COc3nccnc3N3CCNCC3)cc2c1` (as salt: fumarate) [Example 213, 3-(1-Piperazinyl)-2-pyrazinyl 6-quinolinylmethyl ether] showed a melting point of 207 to 209 °C.

In turn, `c1ccc(OCCOc2nc3ccccc3nc2N2CCNCC2)cc1` (as salt: hydrochloride) [Example 3, 2-(2-Phenoxyethoxy)-3-(1-piperazinyl)quinoxaline] had a melting point of 123 to 126 °C.

The compound `c1ccc(OCCCOc2nccnc2N2CCNCC2)cc1` (as salt: hydrochloride) [Example 90, 3-(Phenoxy)propyl 3-(1-piperazinyl)-2-pyrazinyl ether] showed a melting point of 146 to 146.5 °C.

In the case of `c1ccc(OCCCCOc2nccnc2N2CCNCC2)cc1` (as salt: hydrochloride) [Example 98, 4-(Phenoxy)butyl 3-(1-piperazinyl)-2-pyrazinyl ether], the melting point lay in the range of 129 to 131 °C.

The compound `c1cnc(N2CCNCC2)c(OCC2CCCO2)n1` (stereo not shown) (as salt: hydrochloride) [Example 124, 2-(1-Piperazinyl)-3-(tetrahydro-2-furanylmethoxy)pyrazine] had a melting point of 130 to 136 °C.

For the compound `CN1CC(COc2nccnc2N2CCNCC2)Oc2ccccc21` (stereo not shown) (as salt: hydrochloride) [Example 131, 2-(4-Methyl-3,4-dihydro-2H-1,4-benzoxazin-2-ylmethoxy)-3-(1-piperazinyl)-pyrazine], the melting point was 119 °C (dec.).

As to `c1ccc2c(c1)CCC(COc1nccnc1N1CCNCC1)O2` (stereo not shown) (as salt: hydrochloride) [Example 133, 2-(3,4-Dihydro-2H-chromen-2-ylmethoxy)-3-(1-piperazinyl)pyrazine], the melting point fell in the range of 170 to 175 °C.

`Cc1nc2cc(OCCOc3nccnc3N3CCNCC3)ccc2s1` (as salt: hydrochloride) [Example 143, 2-Methyl-5-(2-{[3-(1-piperazinyl)-2-pyrazinyl]oxy}ethoxy)-1,3-benzothiazole]: the melting point fell in the range of 188 to 190 °C.

In the case of `c1ccc2c(c1)OC[C@@H](COc1nccnc1N1CCNCC1)O2` (as salt: hydrochloride) [Example 148, 2-[(2S)-2,3-Dihydro-1,4-benzodioxin-2-ylmethoxy]-3-(1-piperazinyl)pyrazine], the melting point is 160 °C (dec.).

With `c1cncc(OCCOc2nccnc2N2CCNCC2)c1` (as salt: hydrochloride) [Example 150, 2-(3-Pyridyloxy)ethyl 3-(1-piperazinyl)-2-pyrazinyl ether], the melting point is 170 to 175 °C.

With `c1cc(OCCOc2nccnc2N2CCNCC2)ccn1` (as salt: hydrochloride) [Example 151, 2-(4-Pyridyloxy)ethyl 3-(1-piperazinyl)-2-pyrazinyl ether], the melting point was 170 °C (dec.).

Regarding `Cc1ccc(OCCOc2nccnc2N2CCNCC2)cn1` (as salt: hydrochloride) [Example 153, 2-(6-Methyl-3-pyridyloxy)ethyl 3-(1-piperazinyl)-2-pyrazinyl ether], the melting point was 157 °C (dec.).

As to `Cc1ncccc1OCCOc1nccnc1N1CCNCC1` (as salt: hydrochloride) [Example 154, 2-(2-Methyl-3-pyridyloxy)ethyl 3-(1-piperazinyl)-2-pyrazinyl ether], the melting point is 50 °C (dec.).

With `c1cnc(N2CCNCC2)c(OCCOc2ccsc2)n1` (as salt: hydrochloride) [Example 157, 2-(3-Thienyloxy)ethyl 3-(1-piperazinyl)-2-pyrazinyl ether], the melting point fell in the range of 75 to 85 °C.

Turning to `Nc1cc(OCCOc2nccnc2N2CCNCC2)c2ccccc2n1` (as salt: hydrochloride) [Example 160, 4-(2-{[3-(1-piperazinyl)-2-pyrazinyl]oxy}ethoxy)-2-quinolinamine], the melting point is 156 °C (dec.).

`CN1CCN(c2nccnc2OCC2COc3ccccc3O2)CC1` (stereo not shown) (as salt: hydrochloride) [Example 169, 2,3-Dihydro-1,4-benzodioxin-2-ylmethyl 3-(4-methyl-1-piperazinyl)-2-pyrazinyl ether] displayed a melting point of 160 to 167 °C.

The compound `C[C@@H]1CNCCN1c1nccnc1OCCOc1cccnc1` (as salt: hydrochloride) [Example 173, (2R)-Methyl-1-{3-[2-(3-pyridinyloxy)ethoxy]-2-pyrazinyl}piperazine] yielded a melting point of 180 to 183 °C.

Take `CC1CNCCN1c1nc2ccccc2nc1OCCOc1cccc2c1OCO2` (stereo not shown) (as salt: hydrochloride) [Example 182, 2-[2-(1,3-Benzodioxol-4-yloxy)ethoxy]-3-(2-methyl-1-piperazinyl)quinoxaline]: the melting point was 133 to 138 °C.

The compound `Cc1nc(OCCOc2ccccc2)c(N2CCNCC2)nc1C` (as salt: hydrochloride) [Example 183, 5,6-Dimethyl-2-(2-phenoxyethoxy)-3-(1-piperazinyl)pyrazine] gave a melting point of 138 to 140 °C.

In turn, `c1ccc(OCCOc2cccnc2N2CCNCC2)cc1` (as salt: hydrochloride) [Example 185, 1-[3-(2-Phenoxyethoxy)-2-pyridinyl]piperazine] registered a melting point of 91 to 120 °C.

The compound `c1cnc(N2CCNCC2)c(OCCOc2ccc3c(c2)OCCO3)n1` (as salt: hydrochloride) [Example 210, 2-[2-(2,3-Dihydro-1,4-benzodioxin-6-yloxy)ethoxy]-3-(1-piperazinyl)pyrazine] registered a melting point of 158 to 160 °C.

With `c1coc(COc2nccnc2N2CCNCC2)c1` (as salt: maleate) [Example 2, 2-(2-Furylmethoxy)-3-(1-piperazinyl)pyrazine], the melting point was 118 to 120 °C.

`Cc1ccccc1OCCOc1nccnc1N1CCNCC1` (as salt: maleate) [Example 93, 2-(2-Methylphenoxy)ethyl 3-(1-piperazinyl)-2-pyrazinyl ether]: the melting point was 151 to 152 °C.

With `Fc1ccccc1OCCOc1nccnc1N1CCNCC1` (as salt: maleate) [Example 95, 2-(2-Fluorophenoxy)ethyl 3-(1-piperazinyl)-2-pyrazinyl ether], the melting point was in the range of 171 to 173 °C.

For the origin of these results see patent US7071180B2, “Certain arylaliphatic and heteroaryl-aliphatic piperazinyl pyrazines and their use in the treatment of serotonin-related diseases” (Biovitrum AB, priority 1999, dated 2006).
